pIC50: −log10 of the molar value.
Key:
Assay type in all cases: functional
Cavia porcellus [1] = species: Cavia porcellus; assay: Agonist activity in guinea pig ileum at a concentration of 1 uM expressed as percent maximal response
Mus musculus [2] = species: Mus musculus; assay: Agonist activity in mouse vas deferens at a concentration of 200 nM expressed as percent maximal response
Mus musculus [3] = species: Mus musculus; assay: Inhibitory activity in mouse vas deferens, n=4
Cavia porcellus [4] = species: Cavia porcellus; assay: Inhibitory activity in guinea pig longitudinal muscle preparation, n=2; details: Muscle tissue

SMILES	Activity (Cavia porcellus [1]) [%]	Activity (Mus musculus [2]) [%]	pIC50 (Mus musculus [3])	pIC50 (Cavia porcellus [4])
CN1CCC23c4c5ccc(O)c4O[C@H]2C=C[C@H](N(CCCl)CCCl)[C@H]3C1C5 (some centres undefined)	15	25		
CN1CCC23c4c5ccc(O)c4O[C@H]2C=C[C@H](N=[N+]=[N-])[C@H]3C1C5 (some centres undefined)			7.34	6.47

Source: ChEMBL document CHEMBL1122705, “Synthesis and pharmacological evaluation of an 8 beta-bis(2-chloroethyl)amino opiate as a nonequilibrium opioid receptor probe” (J Med Chem, 1984)
